Source: US10293023B2, “Method of altering vascular permeability and uses thereof” (CHILDREN'S MEDICAL CENTER CORPORATION, priority 2013, dated 2019)

What was measured:
mouse lungs [1] = test: Endotoxin (LPS)-induced lung vascular permeability, Evan's Blue dye leakage; conditions: for increase of vascular permeability induced by LPS: treatment in combination with LPS for the last two days
Procedure: (§1) Mice (6-10 weeks old, CD1 strain, female) were treated with LPS (100 mg, intraperitoneally) and lung permeability was assessed 2 days after injection ^3. […] The lung permeability was measured using Evan's Blue dye or low MW fluorescently labeled dextran (MW 4000, sigma) leakage ^3. Evans blue dye was extracted from the lung by incubation with formamide (70° C. for 24 h) and the concentration of Evans blue was estimated by dual-wavelength spectrophotometer (620 nm and 740 nm). Mice were treated with BAPN (3 mg/kg, drinking water) for 14 days ^13. […] The inventors treated the mice with LPS for the last two days. For decellularization of lung, the inventors perfused the lung with decellularization buffer (0.5% SDS/PBS) for 1 h and cryosectioned it and analyzed by H&E staining and immunohistochemistry 25,26. […] For analysis of collagen structure, the inventors used picrosirius red staining ^30 and observed the structure using birefringence microscope (Abrio imaging system, CRI, MA)^30.

[2] = test system: pulmonary endothelial cells; test: Endothelial cell-cell junctional integrity in lung by TEM; type: in vivo, mice
Procedure: For transmission electron microscopy (TEM), small pieces (1-2 mm cubes) of lung tissue were fixed with 2.5% Glutaraldehyde and 2% Paraformaldehyde in 0.1 M sodium cacodylate buffer (pH 7.4) for at least 2 h at RT, washed in 0.1M cacodylate buffer and postfixed with 1% Osmiumtetroxide (OsO4)/1.5% Potassiumferrocyanide (KFeCN6) for 1 h, washed in water and incubated in 1% aqueous uranyl acetate for 1 h followed by washes in water and subsequent dehydration in grades of alcohol. The samples were then put in propyleneoxide for 1 hr and infiltrated ON in a 1:1 mixture of propyleneoxide and TAAB Epon (Marivac Canada Inc. St. Laurent, Canada). The samples were then embedded in TAAB Epon and polymerized at 60 C for 48 hrs. Ultrathin sections (about 60 nm) were cut on a Reichert Ultracut-S microtome, picked up on to copper grids stained with lead citrate and examined in a JEOL 1400 TEM microscope or a TecnaiG^2 Spirit BioTWIN.

mouse lungs [3] = test: In vivo pulmonary permeability assay (Evan's Blue dye leakage); design: species or system mice
Procedure: as §1

lung cell = test: Lung cell proliferation or apoptosis in vivo; design: species or system mice; conditions: data not shown
mouse lungs [4] = test: Inflammatory cell count in BAL fluid (Wright-Giemsa stain); type: in vivo, mice; conditions: total inflammatory cell count
Procedure: BAL was performed by instilling 0.9% NaCl in two separate 0.5 ml aliquots. The fluid was recovered by gentle suction and placed on ice for immediate processing. An aliquot of the BAL fluid was processed immediately for differential cell counts performed on cytospin preparations stained with modified Wright-Giemsa stain (Diff-Quik; American Scientific Products, McGaw Park, Ill.).

mouse lung tissues = test: Lung stiffness (Young's modulus) by tensile loading assay; conditions: compared with controls (control IgG, control siRNA)
Procedure: Mice (6-10 weeks old, CD1 strain, female) were treated with LPS (100 mg, intraperitoneally) and lung permeability was assessed 2 days after injection ^3. […] Gene knockdown or overexpression in the lung (2 days later) was confirmed by measuring mRNA and/or protein levels using qRT-PCR and IB, respectively. […] Mice were treated with BAPN (3 mg/kg, drinking water) for 14 days ^13. The inventors also treated mice with LOX function-blocking polyclonal antibody (3 mg/kg)^13,36, LOX DNA or LOX siRNA (10 mg/mouse) injected intravenously (retro orbital injection) twice per week. The inventors treated the mice with LPS for the last two days.
The inventors trimmed and made cylindrical lung tissue sections using a sharp knife that included peripheral and central portions of the left lobe. The stiffness of mouse lung tissues was evaluated by determining Young's Modulus (E) under tensile loading ^31,32 (Mach-1; Biomomentum, Canada). Tissues were attached to the base and probe using polyacrylamide glue and stretched until complete breakage of the tissue. The Young's Modulus was derived from the slope of a standard stress-strain curve using data within the first 10% of the maximum strain.

mouse lungs [5] = test: ECM and collagen structure of decellularized lung (H&E, immunofluorescence, picrosirius red birefringence); conditions: for collagen fiber alignment with alveolar septae: picrosirius red staining, birefringence microscopy
Procedure: as §1

LOX [6] = test: LOX activity measured in blood samples (LOX activity assay kit); type: in vivo; conditions: treated mice vs control; BAPN 2 weeks, LOX siRNA 1 week
Procedure: LOX activity in the serum and lung homogenate was measured using LOX activity assay kit (ABD Bioquest, CA) in which LOX substrate that releases hydrogen peroxide was detected ^13,37,55. Hydroxyproline in lung tissue or serum was measured using Hydroxyproline assay kit (Biovision, Milpitas, Calif.)^27. The levels of IL-1 and TNF-α in the lung homogenate were measured by ELISA (R&D systems).

LOX [7] = test: LOX mRNA and protein expression in vivo (qRT-PCR, immunoblot); design: species or system mice
Procedure: Quantitative reverse transcription (qRT)-PCR was performed with the Quantitect SYBR Green RT-PCR kit (QIAGEN) using ABI 7300 real time PCR system (Applied Biosystems, Foster City, Calif.). Cyclophilin controlled for overall cDNA content. The primers used for mouse cyclophilin were forward; 5′-[…]-3′ (SEQ ID NO:4), reverse; 5′-[…]-3′(SEQ ID NO:5)^15. The primers for mouse LOX were forward; 5′-[…]-3′(SEQ ID NO:6), reverse; 5′-[…]-3′(SEQ ID NO:7).

| Molecule | LPS-induced pulmonary edema in mice (mouse lungs [1]; mouse, in vivo) | increase of vascular permeability induced by LPS (mouse lungs [1]) | junctions between pulmonary endothelial cells [2] | lung vascular permeability: Evan's Blue dye leakage higher than in control non-treated lungs (mouse lungs [3]; BAPN treatment of healthy mice) | lung cell proliferation or apoptosis in vivo (lung cell) | increase of inflammatory cells in the bronchoalveolar lavage (BAL) fluid (mouse lungs [4]) | decrease of lung stiffness (Young's modulus) (mouse lung tissues) | disruption of collagen VI-positive ECM fibers by LPS (mouse lungs [5]; decellularized lungs, LPS in combination with BAPN) | fine collagen fibril / ECM structure in decellularized lung (mouse lungs [5]; immunofluorescence microscopy) | collagen fiber alignment with alveolar septae (mouse lungs [5]) | decrease in LOX activity measured in blood samples (LOX [6]) | suppression of vascular permeability induced by LPS treatment (mouse lungs [1]; Evans blue dye leakage, 8 mg/mouse/day, IP, two days) | increase of lung vascular permeability (mouse lungs [3]; Evan's Blue dye leakage, compared to control-treated or untreated mice) | LOX expression in the lung (LOX [7]; mRNA and/or protein) | LOX expression in other organs, such as the kidney (LOX [7]; not shown) |
| --- | --- | --- | --- | --- | --- | --- | --- | --- | --- | --- | --- | --- | --- | --- | --- |
| N#CCCN [BAPN, beta-aminopropionitrile] | inhibits | prevented | disrupted | more than 60% | did not produce detectable changes | approximately 2 fold | 40% | prevented this disruption | lost the fine network | more randomly distributed | 25% | – | – | – | – |
| CC(C)(S)[C@@H](N)C(=O)O [D-penicillamine] | – | – | – | – | – | – | – | – | – | – | – | 40% | – | – | – |
| LOX siRNA: siRNA for mouse LOX, 5′-CAACGGGCAGGUGUUCAG-3′ (SEQ ID NO:2) and 5′-CUGAACACCUGCCCGUUG-3′ (SEQ ID NO:3) (listed as RNA, chemistry not given here) | – | restored | – | – | – | – | 30% | – | – | disrupted normal collagen fiber alignment | 60% | – | 2.5 fold | specifically decreased | not in the kidney |
